Patent US10501421B1, “Substituted benzimidazoles as modulators of Ras signaling” (VANDERBILT UNIVERSITY, priority 2017, dated 2019)
Counter-ions that a name gives are not always drawn.

How the values were obtained:
[1] = molecular target: Ras GEF SOS (Son of Sevenless) (Homo sapiens, UniProt Q07889); assay: SOS-mediated nucleotide exchange on Ras (BODIPY-GDP fluorescence); assay type: biochemical; conditions: SOS-mediated exchange of BODIPY-GDP for GTP on Ras
Method in brief: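 Ras loaded with BODIPY-GDP was mixed in buffer with test compound, then GTP and SOS. Fluorescence change from labeled GDP/GTP exchange was followed over time, and rates came from single-exponential fits. EC50 came from a four-parameter fit of mean rate against compound concentration.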

[2] = molecular target: T1, Son of Sevenless (SOS) (Homo sapiens, UniProt Q07889); assay: Binding to SOS, fluorescence polarization anisotropy (FPA) probe displacement; conditions: displacement of FITC-conjugated probe (Example 285), affinity calculated from IC50
T1 sequence (Q07889 564-1049 limits assumed): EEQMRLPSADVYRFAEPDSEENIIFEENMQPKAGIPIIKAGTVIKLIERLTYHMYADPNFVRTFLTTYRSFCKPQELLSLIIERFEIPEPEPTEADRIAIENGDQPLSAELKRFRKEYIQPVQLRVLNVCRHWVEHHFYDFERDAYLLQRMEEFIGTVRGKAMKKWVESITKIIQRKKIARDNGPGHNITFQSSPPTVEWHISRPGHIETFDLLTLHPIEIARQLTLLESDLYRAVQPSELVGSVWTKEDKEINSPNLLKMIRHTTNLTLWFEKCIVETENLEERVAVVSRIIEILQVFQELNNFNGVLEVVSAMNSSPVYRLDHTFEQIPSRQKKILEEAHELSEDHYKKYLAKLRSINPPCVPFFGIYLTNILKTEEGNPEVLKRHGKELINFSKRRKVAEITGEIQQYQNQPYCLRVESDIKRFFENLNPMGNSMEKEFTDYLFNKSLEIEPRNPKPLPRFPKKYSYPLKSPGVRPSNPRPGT
Method: Compounds of the present invention were tested for their ability to bind to the Ras guanine exchange factor (GEF) Son of Sevenless (SOS). Binding to SOS was measured using a Fluorescence polarization anisotropy (FPA) assay that assesses the ability of a test compound to displace a fluorescent FITC-conjugated compound (Example 285). Briefly, the labeled probe compound is incubated with SOS in buffer. Changes in anisotropy indicative of displacement of the labeled probe for a test compound are assessed over a dose range of test compound. Data was analyzed by plotting fluorescence anisotropy values as a function of compound concentration. IC50 values were determined using a four-parameter dose-response (variable slope) and binding affinities were calculated from this IC50 value. This assay is performed in a method analogous to the assay disclosed in: Burns, M. C.; Sun, Q.; Daniels, R. N.; Camper, D. V.; Kennedy, J. P.; Phan, J.; Olejniczak, E. O.; Lee, T.; Waterson, A. G.; Rossanese, O. W.; Fesik, S. W. “Approach for targeting Ras with small molecules that activate SOS-mediated nucleotide exchange” Proc. Natl. Acad. Sci. 2014; 11(9): 3401-3406. PMCID: PMC3948241.

Sequence of Ras GEF SOS (Son of Sevenless) (P01112 1-166 partner limits assumed, one chain of several): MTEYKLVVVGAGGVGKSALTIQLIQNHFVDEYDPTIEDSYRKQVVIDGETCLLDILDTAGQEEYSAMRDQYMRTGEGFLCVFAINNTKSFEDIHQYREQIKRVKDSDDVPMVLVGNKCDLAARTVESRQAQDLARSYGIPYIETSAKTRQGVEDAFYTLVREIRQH

| SMILES | EC50 [1] | Ki [2] |
| --- | --- | --- |
| Fc1cc(F)cc(Cn2c(N3CCNCC3)nc3c(-c4ccccc4F)cccc32)c1 [Example 90, 1-(3,5-difluorobenzyl)-4-(2-fluorophenyl)-2-(piperazin-1-yl)-1H-benzo[d]imidazole] | 1 to 5 µM | 1 to 5 µM |
| Cc1cc2c(nc(N3CCNCC3)n2Cc2ccc(F)c(Cl)c2)c(CCN)c1C [Example 101, 2-(1-(3-chloro-4-fluorobenzyl)-5,6-dimethyl-2-(piperazin-1-yl)-1H-benzo[d]imidazol-4-yl)ethan-1-amine trifluoroacetate] | 1 to 5 µM | 1 to 5 µM |
| Cc1cc(C2=CCNCC2)c2nc(N3CCNCC3)n(Cc3cc(C)c(F)c(C)c3)c2c1 [Example 103, 1-(4-fluoro-3,5-dimethylbenzyl)-6-methyl-2-(piperazin-1-yl)-4-(1,2,3,6-tetrahydropyridin-4-yl)-1H-benzo[d]imidazole] | 1 to 5 µM | < 0.5 µM |
| Cc1cc2c(nc(N3CCNCC3)n2Cc2ccc(Cl)cc2)c(-c2ccccc2)c1C [Example 105, 1-(4-chlorobenzyl)-5,6-dimethyl-4-phenyl-2-(piperazin-1-yl)-1H-benzo[d]imidazole trifluoroacetate] | 1 to 5 µM | > 5 µM |
| CCc1cc(Cn2c(NCCN)nc3c(-c4ccccc4Cl)c(C)c(C)cc32)ccc1Cl [Example 112, N^1-(1-(4-chloro-3-ethylbenzyl)-4-(2-chlorophenyl)-5,6-dimethyl-1H-benzo[d]imidazol-2-yl)ethane-1,2-diamine trifluoroacetate] | 5 to 30 µM | 1 to 5 µM |
| CCc1cc(Cn2c(NCCN)nc3c(-c4c(C)nn(C)c4C)c(C)c(C)cc32)ccc1Cl [Example 115, N^1-(1-(4-chloro-3-ethylbenzyl)-5,6-dimethyl-4-(1,3,5-trimethyl-1H-pyrazol-4-yl)-1H-benzo[d]imidazol-2-yl)ethane-1,2-diamine trifluoroacetate] | 5 to 30 µM | > 5 µM |
| Cc1ccccc1-c1c(C)c(C)cc2c1nc(NCCN)n2Cc1cccc(C#N)c1 [Example 116, 3-((2-((2-aminoethyl)amino)-5,6-dimethyl-4-(o-tolyl)-1H-benzo[d]imidazol-1-yl)methyl)benzonitrile trifluoroacetate] | 1 to 5 µM | 1 to 5 µM |
| Cc1cc(Cn2c(N3CCNCC3)nc3c(-c4ccc(CN)cc4)cc(Cl)cc32)cc(C)c1F [Example 122, (4-(6-chloro-1-(4-fluoro-3,5-dimethylbenzyl)-2-(piperazin-1-yl)-1H-benzo[d]imidazol-4-yl)phenyl)methanamine trifluoroacetate] | 1 to 5 µM | 0.5 to 1 µM |
| CCN(CC)Cc1cc(Cl)cc2c1nc(N1CCNCC1)n2Cc1ccc(F)c(Cl)c1 [Example 136, N-((6-chloro-1-(3-chloro-4-fluorobenzyl)-2-(piperazin-1-yl)-1H-benzo[d]imidazol-4-yl)methyl)-N-ethylethanamine trifluoroacetate] | < 1 µM | 1 to 5 µM |
| Cc1cc(-c2ccccc2C)c2ncn(Cc3ccc(F)c(Cl)c3)c2c1 [Example 143, 1-(3-chloro-4-fluorobenzyl)-6-methyl-4-(o-tolyl)-1H-benzo[d]imidazole] | 5 to 30 µM | > 5 µM |
| CCNCc1c(C)c(C)cc2c1nc(NCCN)n2Cc1ccc(F)c(Cl)c1 [Example 147, N^1-(1-(3-chloro-4-fluorobenzyl)-4-((ethylamino)methyl)-5,6-dimethyl-1H-benzo[d]imidazol-2-yl)ethane-1,2-diamine trifluoroacetate] | < 1 µM | 1 to 5 µM |
| CCCN1CC[C@@H](C(=O)c2ccccc2)[C@H]1c1cc(Cl)cc2c1nc(N1CCNCC1)n2Cc1cc(C)c(F)c(C)c1 [Example 148, ((2S,3R)-2-(6-chloro-1-(4-fluoro-3,5-dimethylbenzyl)-2-(piperazin-1-yl)-1H-benzo[d]imidazol-4-yl)-1-propylpyrrolidin-3-yl)(phenyl)methanone trifluoroacetate] | 1 to 5 µM | 0.5 to 1 µM |
| CC(C)CN1CC[C@@H](C(=O)c2ccccc2)[C@H]1c1cc(Cl)cc2c1nc(N1CCNCC1)n2Cc1ccc(F)c(Cl)c1 [Example 150, ((2S,3R)-2-(6-chloro-1-(3-chloro-4-fluorobenzyl)-2-(piperazin-1-yl)-1H-benzo[d]imidazol-4-yl)-1-isobutylpyrrolidin-3-yl)(phenyl)methanone trifluoroacetate] | 5 to 30 µM | > 5 µM |
| CC(C)CN1CC[C@@H](C(=O)c2ccccc2)[C@@H]1c1cc(Cl)cc2c1nc(N1CCNCC1)n2Cc1ccc(F)c(Cl)c1 [Example 151, ((2R,3R)-2-(6-chloro-1-(3-chloro-4-fluorobenzyl)-2-(piperazin-1-yl)-1H-benzo[d]imidazol-4-yl)-1-isobutylpyrrolidin-3-yl)(phenyl)methanone trifluoroacetate] | 5 to 30 µM | > 5 µM |
| CC(C)N1CC[C@@H](C(=O)c2ccccc2)[C@@H]1c1cc(Cl)cc2c1nc(N1CCNCC1)n2Cc1ccc(F)c(Cl)c1 [Example 153, ((2R,3R)-2-(6-chloro-1-(3-chloro-4-fluorobenzyl)-2-(piperazin-1-yl)-1H-benzo[d]imidazol-4-yl)-1-isopropylpyrrolidin-3-yl)(phenyl)methanone trifluoroacetate] | 5 to 30 µM | > 5 µM |

Results, then the compound that gave them:

| EC50 [1] | Ki [2] | SMILES |
| --- | --- | --- |
| 1 to 5 µM | > 5 µM | NCCc1cccc2c1nc(N1CCNCC1)n2Cc1ccc(F)c(Cl)c1 [Example 98, 2-(1-(3-chloro-4-fluorobenzyl)-2-(piperazin-1-yl)-1H-benzo[d]imidazol-4-yl)ethan-1-amine trifluoroacetate] |
| 1 to 5 µM | > 5 µM | Cc1cc2c(nc(N3CCNCC3)n2Cc2cc(C)c(F)c(C)c2)c(CCN)c1C [Example 102, 2-(1-(4-fluoro-3,5-dimethylbenzyl)-5,6-dimethyl-2-(piperazin-1-yl)-1H-benzo[d]imidazol-4-yl)ethan-1-amine trifluoroacetate] |
| < 1 µM | < 0.5 µM | Cc1cc(-c2c(C)nn(C)c2C)c2nc(N3CCNCC3)n(Cc3ccc(F)c(Cl)c3)c2c1 [Example 121, 1-(3-chloro-4-fluorobenzyl)-6-methyl-2-(piperazin-1-yl)-4-(1,3,5-trimethyl-1H-pyrazol-4-yl)-1H-benzo[d]imidazole trifluoroacetate] |
| 1 to 5 µM | 1 to 5 µM | Cc1cc(Cn2c(N3CCNCC3)nc3c(C#Cc4ccccc4)cc(Cl)cc32)cc(C)c1F [Example 123, 6-chloro-1-(4-fluoro-3,5-dimethylbenzyl)-4-(phenylethynyl)-2-(piperazin-1-yl)-1H-benzo[d]imidazole trifluoroacetate] |
| < 1 µM | 0.5 to 1 µM | CN(CCO)Cc1cc(Cl)cc2c1nc(N1CCNCC1)n2Cc1ccc(F)c(Cl)c1 [Example 134, 2-(((6-chloro-1-(3-chloro-4-fluorobenzyl)-2-(piperazin-1-yl)-1H-benzo[d]imidazol-4-yl)methyl)(methyl)amino)ethan-1-ol trifluoroacetate] |
| < 1 µM | 1 to 5 µM | CN(CCCO)Cc1cc(Cl)cc2c1nc(N1CCNCC1)n2Cc1ccc(F)c(Cl)c1 [Example 135, 3-(((6-chloro-1-(3-chloro-4-fluorobenzyl)-2-(piperazin-1-yl)-1H-benzo[d]imidazol-4-yl)methyl)(methyl)amino)propan-1-ol trifluoroacetate] |
| 1 to 5 µM | 1 to 5 µM | NCCNCc1cc(Cl)cc2c1nc(N1CCNCC1)n2Cc1ccc(F)c(Cl)c1 [Example 137, N^1-((6-chloro-1-(3-chloro-4-fluorobenzyl)-2-(piperazin-1-yl)-1H-benzo[d]imidazol-4-yl)methyl)ethane-1,2-diamine trifluoroacetate] |
| 30 to 100 µM | > 5 µM | Cc1cc(-c2ccccc2C)c2ncn(Cc3cc(C)c(F)c(C)c3)c2c1 [Example 142, 1-(4-fluoro-3,5-dimethylbenzyl)-6-methyl-4-(o-tolyl)-1H-benzo[d]imidazole] |
| 30 to 100 µM | > 5 µM | Cc1cc(CN(C)C)c2ncn(Cc3ccc(F)c(Cl)c3)c2c1 [Example 145, 1-(1-(3-chloro-4-fluorobenzyl)-6-methyl-1H-benzo[d]imidazol-4-yl)-N,N-dimethylmethanamine trifluoroacetate] |
